Source: ChEMBL document CHEMBL2010711, “Synthesis and comparative evaluation of 4-oxa- and 4-aza-podophyllotoxins as antiproliferative microtubule destabilizing agents” (Bioorg Med Chem Lett, 2012)
Active and inactive are the calls of the source.

Tests used:
[1] = tested on: RXF 393; test: Cytotoxicity against human RXF393 cells after 48 hrs by trypan blue dye exclusion assay; assay type: functional; conditions: RXF 393, 48 h
[2] = tested on: U-251; test: Cytotoxicity against human U251 cells after 48 hrs by trypan blue dye exclusion assay; assay type: functional; conditions: U-251, 48 h
[3] = tested on: Paracentrotus lividus; test: Antimitotic activity against Paracentrotus lividus embryo assessed as cleavage alteration at 2 fold less effective threshold concentration after 2.5 to 6 hrs; assay type: functional, organism-based
[4] = tested on: UO-31; test: Cytotoxicity against human UO31 cells after 48 hrs by trypan blue dye exclusion assay; assay type: functional; conditions: UO-31, 48 h
[5] = tested on: NCI/ADR-RES; test: Cytotoxicity against human NCI/ADR-RES cells after 48 hrs by trypan blue dye exclusion assay; assay type: functional
[6] = tested on: OVCAR-8; test: Cytotoxicity against human OVCAR8 cells after 48 hrs by trypan blue dye exclusion assay; assay type: functional; conditions: OVCAR-8, 48 h
[7] = tested on: MOLT-4; test: Cytotoxicity against human MOLT4 cells after 48 hrs by trypan blue dye exclusion assay; assay type: functional; conditions: MOLT-4, 48 h
[8] = tested on: DU-145; test: Cytotoxicity against human DU145 cells after 48 hrs by trypan blue dye exclusion assay; assay type: functional; conditions: DU-145, 48 h
[9] = tested on: MDA-MB-435; test: Cytotoxicity against human MDA-MB-435 cells after 48 hrs by trypan blue dye exclusion assay; assay type: functional; conditions: MDA-MB-435, 48 h
[10] = tested on: LOX IMVI; test: Cytotoxicity against human LOXIMVI cells after 48 hrs by trypan blue dye exclusion assay; assay type: functional
[11] = tested on: Paracentrotus lividus; test: Microtubule destabilizing activity in Paracentrotus lividus embryo assessed as concentration required to cause 100% embryo spinning after 15 mins to 20 hrs; assay type: functional
[12] = tested on: CCRF-CEM; test: Cytotoxicity against human CCRF-CEM cells after 48 hrs by trypan blue dye exclusion assay; assay type: functional
[13] = tested on: RPMI-8226; test: Cytotoxicity against human RPMI8226 cells after 48 hrs by trypan blue dye exclusion assay; assay type: functional; conditions: RPMI-8226, 48 h
[14] = tested on: OVCAR-3; test: Cytotoxicity against human OVCAR3 cells after 48 hrs by trypan blue dye exclusion assay; assay type: functional; conditions: OVCAR-3, 48 h
[15] = tested on: UACC-62; test: Cytotoxicity against human UACC62 cells after 48 hrs by trypan blue dye exclusion assay; assay type: functional; conditions: UACC-62, 48 h
[16] = tested on: A549; test: Cytotoxicity against human A549 cells after 48 hrs by trypan blue dye exclusion assay; assay type: functional; conditions: A549, 48 h
[17] = tested on: SF-539; test: Cytotoxicity against human SF539 cells after 48 hrs by trypan blue dye exclusion assay; assay type: functional; conditions: SF-539, 48 h
[18] = tested on: 786-0; test: Cytotoxicity against human 786-0 cells after 48 hrs by trypan blue dye exclusion assay; assay type: functional; conditions: 786-0, 48 h
[19] = tested on: OVCAR-5; test: Cytotoxicity against human OVCAR5 cells after 48 hrs by trypan blue dye exclusion assay; assay type: functional; conditions: OVCAR-5, 48 h
[20] = tested on: T47D; test: Cytotoxicity against human T47D cells after 48 hrs by trypan blue dye exclusion assay; assay type: functional
[21] = tested on: Paracentrotus lividus; test: Antimitotic activity against Paracentrotus lividus embryo assessed as cleavage arrest at 2 fold less effective threshold concentration after 2.5 to 6 hrs; assay type: functional, organism-based
[22] = tested on: SK-OV-3; test: Cytotoxicity against human SKOV3 cells after 48 hrs by trypan blue dye exclusion assay; assay type: functional; conditions: SK-OV-3, 48 h
[23] = tested on: COLO 205; test: Cytotoxicity against human COLO205 cells after 48 hrs by trypan blue dye exclusion assay; assay type: functional; conditions: COLO 205, 48 h
[24] = tested on: HL-60(TB); test: Cytotoxicity against human HL-60(TB) cells after 48 hrs by trypan blue dye exclusion assay; assay type: functional; conditions: HL-60, 48 h
[25] = tested on: Paracentrotus lividus; test: Antimitotic activity against Paracentrotus lividus embryo assessed as concentration required to cause 100% cleavage arrest after 2.5 to 6 hrs; assay type: functional
[26] = tested on: HT-29; test: Cytotoxicity against human HT-29 cells after 48 hrs by trypan blue dye exclusion assay; assay type: functional; conditions: HT-29, 48 h
[27] = tested on: SNB-75; test: Cytotoxicity against human SNB75 cells after 48 hrs by trypan blue dye exclusion assay; assay type: functional; conditions: SNB-75, 48 h
[28] = tested on: HCT-116; test: Cytotoxicity against human HCT116 cells after 48 hrs by trypan blue dye exclusion assay; assay type: functional; conditions: HCT-116, 48 h
[29] = tested on: HOP-92; test: Cytotoxicity against human HOP92 cells after 48 hrs by trypan blue dye exclusion assay; assay type: functional; conditions: HOP-92, 48 h
[30] = tested on: HCT-15; test: Cytotoxicity against human HCT15 cells after 48 hrs by trypan blue dye exclusion assay; assay type: functional; conditions: HCT-15, 48 h
[31] = tested on: SF-268; test: Cytotoxicity against human SF268 cells after 48 hrs by trypan blue dye exclusion assay; assay type: functional; conditions: SF-268, 48 h
[32] = Cytotoxicity against human Hs 578T cells after 48 hrs by trypan blue dye exclusion assay; assay type: functional
[33] = tested on: HCC 2998; test: Cytotoxicity against human HCC2998 cells after 48 hrs by trypan blue dye exclusion assay; assay type: functional; conditions: HCC 2998, 48 h
[34] = tested on: ACHN; test: Cytotoxicity against human ACHN cells after 48 hrs by trypan blue dye exclusion assay; assay type: functional
[35] = tested on: EKVX; test: Cytotoxicity against human EKVX cells after 48 hrs by trypan blue dye exclusion assay; assay type: functional
[36] = tested on: NCI-H23; test: Cytotoxicity against human NCI-H23 cells after 48 hrs by trypan blue dye exclusion assay; assay type: functional; conditions: NCI-H23, 48 h
[37] = tested on: SN12C; test: Cytotoxicity against human SN12C cells after 48 hrs by trypan blue dye exclusion assay; assay type: functional
[38] = tested on: NCI-H460; test: Cytotoxicity against human NCI-H460 cells after 48 hrs by trypan blue dye exclusion assay; assay type: functional; conditions: NCI-H460, 48 h
[39] = tested on: MCF7; test: Cytotoxicity against human MCF7 cells after 48 hrs by trypan blue dye exclusion assay; assay type: functional; conditions: MCF7, 48 h
[40] = tested on: NCI-H522; test: Cytotoxicity against human NCI-H522 cells after 48 hrs by trypan blue dye exclusion assay; assay type: functional; conditions: NCI-H522, 48 h
[41] = tested on: IGROV-1; test: Cytotoxicity against human IGROV1 cells after 48 hrs by trypan blue dye exclusion assay; assay type: functional; conditions: IGROV-1, 48 h
[42] = tested on: SF-295; test: Cytotoxicity against human SF295 cells after 48 hrs by trypan blue dye exclusion assay; assay type: functional; conditions: SF-295, 48 h
[43] = tested on: SK-MEL-2; test: Cytotoxicity against human SK-MEL-2 cells after 48 hrs by trypan blue dye exclusion assay; assay type: functional; conditions: SK-MEL-2, 48 h
[44] = tested on: BT-549; test: Cytotoxicity against human BT549 cells after 48 hrs by trypan blue dye exclusion assay; assay type: functional; conditions: BT-549, 48 h
[45] = tested on: SW-620; test: Cytotoxicity against human SW620 cells after 48 hrs by trypan blue dye exclusion assay; assay type: functional; conditions: SW-620, 48 h
[46] = tested on: TK-10; test: Cytotoxicity against human TK10 cells after 48 hrs by trypan blue dye exclusion assay; assay type: functional; conditions: TK-10, 48 h
[47] = tested on: SNB-19; test: Cytotoxicity against human SNB19 cells after 48 hrs by trypan blue dye exclusion assay; assay type: functional; conditions: SNB-19, 48 h
[48] = tested on: SR; test: Cytotoxicity against human SR cells after 48 hrs by trypan blue dye exclusion assay; assay type: functional
[49] = tested on: MDA-MB-468; test: Cytotoxicity against human MDA-MB-468 cells after 48 hrs by trypan blue dye exclusion assay; assay type: functional; conditions: MDA-MB-468, 48 h
[50] = tested on: PC-3; test: Cytotoxicity against human PC3 cells after 48 hrs by trypan blue dye exclusion assay; assay type: functional; conditions: PC-3, 48 h
[51] = tested on: Paracentrotus lividus; test: Antimitotic activity against Paracentrotus lividus embryo assessed as concentration required to cause 100% cleavage alteration after 2.5 to 6 hrs; assay type: functional
[52] = tested on: Malme-3M; test: Cytotoxicity against human MALME-3M cells after 48 hrs by trypan blue dye exclusion assay; assay type: functional
[53] = tested on: KM12; test: Cytotoxicity against human KM12 cells after 48 hrs by trypan blue dye exclusion assay; assay type: functional; conditions: KM12, 48 h
[54] = tested on: A498; test: Cytotoxicity against human A498 cells after 48 hrs by trypan blue dye exclusion assay; assay type: functional; conditions: A498, 48 h
[55] = tested on: M14; test: Cytotoxicity against human M14 cells after 48 hrs by trypan blue dye exclusion assay; assay type: functional; conditions: M14, 48 h
[56] = tested on: OVCAR-4; test: Cytotoxicity against human OVCAR4 cells after 48 hrs by trypan blue dye exclusion assay; assay type: functional; conditions: OVCAR-4, 48 h
[57] = tested on: Paracentrotus lividus; test: Microtubule destabilizing activity in Paracentrotus lividus embryo assessed as embryo spinning at 2 fold less effective threshold concentration after 15 mins to 20 hrs; assay type: functional, organism-based
[58] = tested on: MDA-MB-231; test: Cytotoxicity against human MDA-MB-231 cells after 48 hrs by trypan blue dye exclusion assay; assay type: functional; conditions: MDA-MB-231, 48 h
[59] = tested on: SK-MEL-28; test: Cytotoxicity against human SK-MEL-28 cells after 48 hrs by trypan blue dye exclusion assay; assay type: functional; conditions: SK-MEL-28, 48 h
[60] = tested on: NCI-H226; test: Cytotoxicity against human NCI-H226 cells after 48 hrs by trypan blue dye exclusion assay; assay type: functional; conditions: NCI-H226, 48 h

SMILES: COc1ccc2c(c1)OC1=C(C(=O)OC1)C2c1cc(OC)c(OC)c(OC)c1 (stereo not given)
- GI50 [1]: 231 nM
- GI50 [2]: 731 nM
- Activity [3]: inactive
- GI50 [4]: 936 nM
- GI50 [5]: 334 nM
- GI50 [6]: 788 nM
- GI50 [7]: 515 nM
- GI50 [8]: 648 nM
- GI50 [9]: 120 nM
- GI50 [10]: 505 nM
- EC [11]: 200 nM
- GI50 [12]: 315 nM
- GI50 [13]: 816 nM
- GI50 [14]: 332 nM
- GI50 [15]: 568 nM
- GI50 [16]: 707 nM
- GI50 [17]: 376 nM
- GI50 [18]: 562 nM
- GI50 [19]: 4680 nM
- GI50 [20]: 489 nM
- Activity [21]: inactive
- GI50 [22]: 368 nM
- GI50 [23]: 309 nM
- GI50 [24]: 249 nM
- EC [25]: 50 nM
- GI50 [26]: 323 nM
- GI50 [27]: 172 nM
- GI50 [28]: 496 nM
- GI50 [29]: 496 nM
- GI50 [30]: 508 nM
- GI50 [31]: 731 nM
- GI50 [32]: 377 nM
- GI50 [33]: 1350 nM
- GI50 [34]: 1630 nM
- GI50 [35]: 1420 nM
- GI50 [36]: 441 nM
- GI50 [37]: 993 nM
- GI50 [38]: 1270 nM
- GI50 [39]: 330 nM
- GI50 [40]: 378 nM
- GI50 [41]: 1130 nM
- GI50 [42]: 288 nM
- GI50 [43]: 439 nM
- GI50 [44]: 947 nM
- GI50 [45]: 352 nM
- GI50 [46]: > 100000 nM
- GI50 [47]: 553 nM
- GI50 [48]: 242 nM
- GI50 [49]: 232 nM
- GI50 [50]: 482 nM
- EC [51]: 5 nM
- GI50 [52]: 468 nM
- GI50 [53]: 464 nM
- GI50 [54]: 295 nM
- GI50 [55]: 505 nM
- GI50 [56]: 2650 nM
- Activity [57]: inactive
- GI50 [58]: 1740 nM
- GI50 [59]: 667 nM
- GI50 [60]: 47500 nM
